Test results taken from patent US7217726B2, “Antibacterial agents” (Orchid Chemicals & Pharmaceuticals Limited, priority 2002, dated 2007).
Values after ≈ are worked out from the molar mass of the structure shown.

What was measured:
S. aureus MRO 00048 = assay: Agar Dilution Method MIC, S. aureus MRO 00048; type: cell-based; conditions: Staphylococcus aureus, MRO00048, Mueller Hinton Agar, 35° Celsius, 20 hours, read-out: Minimum Inhibitory Concentration (MIC in μg/ml)
Experimental: (§1) Briefly, the compounds of invention were weighed, dissolved in Dimethyl Sulfoxide, serially diluted in the same solvent and then incorporated into molten Mueller Hinton Agar in a petridish before solidification, with each petridish containing a different concentration of a compound.
(§2) The Bacterial Inoculum was prepared by touching the tops of 3 to 5 well isolated bacterial colonies with the same morphological appearance from an 18 hour old culture with an inoculating loop, transfering the growth to a tube containing 5 ml of normal saline and adjusting the turbidity of the saline suspension to 0.5 Macfarland Turbidity Standard equivalent to a bacterial population of 1.5×10^8 colony forming units (CFU) per millilitre of suspension.
(§3) The bacterial inoculum prepared in the above manner was inoculated onto petri dishes containing Mueller Hinton Agar which had earlier been incorporated with different dilutions of the compounds of invention by a Multipoint Inoculator with each inoculum spot containing approximately 1×10^4 colony forming units (CFU) of bacteria.
(§4) The inoculated petridishes were incubated at 35° Celsius in an ambient atmosphere for 20 hours. Petridishes containing different concentrations of Vancomycin and Oxacillin and inoculated with Staphylococcus aureus, Coagulase Negative Staphylococci and Enterococci were incubated for 24 hours.

S. aureus ATCC 29213 = assay: Agar Dilution Method MIC, S. aureus ATCC 29213; type: cell-based; conditions: Staphylococcus aureus, ATCC29213, Mueller Hinton Agar, 35° Celsius, 20 hours, read-out: Minimum Inhibitory Concentration (MIC in μg/ml)
Experimental: as §1, §2, §3, §4

S. aureus MRO 00059 = assay: Agar Dilution Method MIC, S. aureus MRO 00059; type: cell-based; conditions: Staphylococcus aureus, MRO00059, Mueller Hinton Agar, 35° Celsius, 20 hours, read-out: Minimum Inhibitory Concentration (MIC in μg/ml)
Experimental: as §1, §2, §3, §4

[1] = system: M. catarrhalis ATCC 43627; assay: Agar Dilution Method MIC, M. catarrhalis ATCC 43627; type: cell-based, Morexella catarrhalis; conditions: Moraxella catarrhalis, ATCC43627, Mueller Hinton Agar, 35° Celsius, 20 hours, read-out: Minimum Inhibitory Concentration (MIC in μg/ml)
Experimental: as §1, §2, §3, §4

S. aureus MRO 00055 = assay: Agar Dilution Method MIC, S. aureus MRO 00055; type: cell-based; conditions: Staphylococcus aureus, MRO00055, Mueller Hinton Agar, 35° Celsius, 20 hours, read-out: Minimum Inhibitory Concentration (MIC in μg/ml)
Experimental: as §1, §2, §3, §4

E. faecalis ATCC 29212 = assay: Agar Dilution Method MIC, E. faecalis ATCC 29212; type: cell-based; conditions: Enterococcus faecalis, ATCC29212, Mueller Hinton Agar, 35° Celsius, 20 hours, read-out: Minimum Inhibitory Concentration (MIC in μg/ml)
Experimental: as §1, §2, §3, §4

E. fecalis MRO 04045 = assay: Agar Dilution Method MIC, E. fecalis MRO 04045; type: cell-based; conditions: Enterococcus faecalis, MRO04045, Mueller Hinton Agar, 35° Celsius, 20 hours, read-out: Minimum Inhibitory Concentration (MIC in μg/ml)
Experimental: as §1, §2, §3, §4

E. faecalis ATCC 51299 = assay: Agar Dilution Method MIC, E. faecalis ATCC 51299; type: cell-based; conditions: Enterococcus faecalis, ATCC51299, Mueller Hinton Agar, 35° Celsius, 20 hours, read-out: Minimum Inhibitory Concentration (MIC in μg/ml)
Experimental: as §1, §2, §3, §4

S. aureus MRO 00013 = assay: Agar Dilution Method MIC, S. aureus MRO 00013; type: cell-based; conditions: Staphylococcus aureus, MRO00013, Mueller Hinton Agar, 35° Celsius, 20 hours, read-out: Minimum Inhibitory Concentration (MIC in μg/ml)
Experimental: as §1, §2, §3, §4

S. epidermidis MRO 02046 = assay: Agar Dilution Method MIC, S. epidermidis MRO 02046; type: cell-based; conditions: Staphylococcus epidermidis, MRO02046, Mueller Hinton Agar, 35° Celsius, 20 hours, read-out: Minimum Inhibitory Concentration (MIC in μg/ml)
Experimental: as §1, §2, §3, §4

S. aureus MRO 00003 = assay: Agar Dilution Method MIC, S. aureus MRO 00003; type: cell-based; conditions: Staphylococcus aureus, MRO00003, Mueller Hinton Agar, 35° Celsius, 20 hours, read-out: Minimum Inhibitory Concentration (MIC in μg/ml)
Experimental: as §1, §2, §3, §4

[2] = system: M. catarrhalis ATCC 43617; assay: Agar Dilution Method MIC, M. catarrhalis ATCC 43617; type: cell-based, Morexella catarrhalis; conditions: Moraxella catarrhalis, ATCC43617, Mueller Hinton Agar, 35° Celsius, 20 hours, read-out: Minimum Inhibitory Concentration (MIC in μg/ml)
Experimental: as §1, §2, §3, §4

[3] = system: M. catarrhalis ATCC 43628; assay: Agar Dilution Method MIC, M. catarrhalis ATCC 43628; type: cell-based, Morexella catarrhalis; conditions: Moraxella catarrhalis, ATCC43628, Mueller Hinton Agar, 35° Celsius, 20 hours, read-out: Minimum Inhibitory Concentration (MIC in μg/ml)
Experimental: as §1, §2, §3, §4

S. aureus MRO 00030 = assay: Agar Dilution Method MIC, S. aureus MRO 00030; type: cell-based; conditions: Staphylococcus aureus, MRO00030, Mueller Hinton Agar, 35° Celsius, 20 hours, read-out: Minimum Inhibitory Concentration (MIC in μg/ml)
Experimental: as §1, §2, §3, §4

S. aureus MRO 00001 = assay: Agar Dilution Method MIC, S. aureus MRO 00001; type: cell-based; conditions: Staphylococcus aureus, MRO00001, Mueller Hinton Agar, 35° Celsius, 20 hours, read-out: Minimum Inhibitory Concentration (MIC in μg/ml)
Experimental: as §1, §2, §3, §4

S. aureus ATCC 43300 = assay: Agar Dilution Method MIC, S. aureus ATCC 43300; type: cell-based; conditions: Staphylococcus aureus, ATCC43300, Mueller Hinton Agar, 35° Celsius, 20 hours, read-out: Minimum Inhibitory Concentration (MIC in μg/ml)
Experimental: as §1, §2, §3, §4

Row | SMILES | MIC (S. aureus MRO 00048) | MIC (S. aureus ATCC 29213) | MIC (S. aureus MRO 00059) | MIC [1] | MIC (S. aureus MRO 00055) | MIC (E. faecalis ATCC 29212) | MIC (E. fecalis MRO 04045) | MIC (E. faecalis ATCC 51299) | MIC (S. aureus MRO 00013) | MIC (S. epidermidis MRO 02046) | MIC (S. aureus MRO 00003) | MIC [2] | MIC [3] | MIC (S. aureus MRO 00030) | MIC (S. aureus MRO 00001) | MIC (S. aureus ATCC 43300)
1 | CC(=S)NC[C@H]1CN(c2ccc(N3CCN(C(=O)Nc4ccc([N+](=O)[O-])cc4)CC3)c(F)c2)C(=O)O1 [Example 46] | 0.25 µg/mL (≈ 0.484 µM) | 0.5 µg/mL (≈ 0.968 µM) | 0.5 µg/mL (≈ 0.968 µM) | 2 µg/mL (≈ 3.87 µM) | 0.5 µg/mL (≈ 0.968 µM) | 0.25 µg/mL (≈ 0.484 µM) | 0.25 µg/mL (≈ 0.484 µM) | 0.25 µg/mL (≈ 0.484 µM) | 0.5 µg/mL (≈ 0.968 µM) | 0.25 µg/mL (≈ 0.484 µM) | 0.5 µg/mL (≈ 0.968 µM) | 2 µg/mL (≈ 3.87 µM) | 2 µg/mL (≈ 3.87 µM) | 0.5 µg/mL (≈ 0.968 µM) | 0.25 µg/mL (≈ 0.484 µM) | 0.25 µg/mL (≈ 0.484 µM)
2 | CC(=S)NC[C@H]1CN(c2ccc(N3CCN(C(=S)c4cccs4)CC3)c(F)c2)C(=O)O1 [Example 3, (S)-N-[3-[3-Fluoro-4-[4-(thiophen-2-ylthiocarbonyl)piperazin-1-yl]phenyl]-2-oxooxazolidin-5-ylmethyl]thioacetamide] | 0.25 µg/mL (≈ 0.522 µM) | 0.5 µg/mL (≈ 1.04 µM) | 0.25 µg/mL (≈ 0.522 µM) | 1 µg/mL (≈ 2.09 µM) | 1 µg/mL (≈ 2.09 µM) | 0.5 µg/mL (≈ 1.04 µM) | 1 µg/mL (≈ 2.09 µM) | 0.25 µg/mL (≈ 0.522 µM) | 1 µg/mL (≈ 2.09 µM) | 0.5 µg/mL (≈ 1.04 µM) | 1 µg/mL (≈ 2.09 µM) | 1 µg/mL (≈ 2.09 µM) | 1 µg/mL (≈ 2.09 µM) | 0.5 µg/mL (≈ 1.04 µM) | 0.5 µg/mL (≈ 1.04 µM) | 0.25 µg/mL (≈ 0.522 µM)

Continued by falling MIC (S. aureus MRO 00048), values first:

Row | MIC (S. aureus MRO 00048) | MIC (S. aureus ATCC 29213) | MIC (S. aureus MRO 00059) | MIC [1] | MIC (S. aureus MRO 00055) | MIC (E. faecalis ATCC 29212) | MIC (E. fecalis MRO 04045) | MIC (E. faecalis ATCC 51299) | MIC (S. aureus MRO 00013) | MIC (S. epidermidis MRO 02046) | MIC (S. aureus MRO 00003) | MIC [2] | MIC [3] | MIC (S. aureus MRO 00030) | MIC (S. aureus MRO 00001) | MIC (S. aureus ATCC 43300) | SMILES
3 | 0.25 µg/mL (≈ 0.573 µM) | 0.5 µg/mL (≈ 1.15 µM) | 0.25 µg/mL (≈ 0.573 µM) | 1 µg/mL (≈ 2.29 µM) | 1 µg/mL (≈ 2.29 µM) | 0.5 µg/mL (≈ 1.15 µM) | 1 µg/mL (≈ 2.29 µM) | 0.25 µg/mL (≈ 0.573 µM) | 1 µg/mL (≈ 2.29 µM) | 0.25 µg/mL (≈ 0.573 µM) | 1 µg/mL (≈ 2.29 µM) | 1 µg/mL (≈ 2.29 µM) | 1 µg/mL (≈ 2.29 µM) | 0.5 µg/mL (≈ 1.15 µM) | 0.25 µg/mL (≈ 0.573 µM) | 0.25 µg/mL (≈ 0.573 µM) | CC(=S)NC[C@H]1CN(c2ccc(N3CCN(C(=S)C4CC4)CC3)c(F)c2)C(=O)O1 [Example 6, (S)-N-[3-[3-Fluoro-4-[4-(cyclopropylthiocarbonyl)piperazin-1-yl]phenyl]-2-oxooxazolidin-5-ylmethyl]thioacetamide]
4 | 0.25 µg/mL (≈ 0.485 µM) | 0.5 µg/mL (≈ 0.97 µM) | 0.25 µg/mL (≈ 0.485 µM) |  | 0.5 µg/mL (≈ 0.97 µM) | 0.25 µg/mL (≈ 0.485 µM) | 0.25 µg/mL (≈ 0.485 µM) | 0.25 µg/mL (≈ 0.485 µM) | 0.5 µg/mL (≈ 0.97 µM) | 0.25 µg/mL (≈ 0.485 µM) | 0.5 µg/mL (≈ 0.97 µM) |  |  | 0.5 µg/mL (≈ 0.97 µM) | 0.25 µg/mL (≈ 0.485 µM) | 0.25 µg/mL (≈ 0.485 µM) | CC(=S)NC[C@H]1CN(c2ccc(N3CCN(C(=S)NC(=O)c4ccccc4)CC3)c(F)c2)C(=O)O1 [Example 47]
5 | 0.25 µg/mL (≈ 0.469 µM) | 0.5 µg/mL (≈ 0.939 µM) | 0.5 µg/mL (≈ 0.939 µM) |  | 0.5 µg/mL (≈ 0.939 µM) | 0.25 µg/mL (≈ 0.469 µM) | 0.25 µg/mL (≈ 0.469 µM) | 0.25 µg/mL (≈ 0.469 µM) | 0.5 µg/mL (≈ 0.939 µM) | 0.25 µg/mL (≈ 0.469 µM) | 0.5 µg/mL (≈ 0.939 µM) |  |  | 0.5 µg/mL (≈ 0.939 µM) | 0.25 µg/mL (≈ 0.469 µM) | 0.25 µg/mL (≈ 0.469 µM) | CC(=S)NC[C@H]1CN(c2ccc(N3CCN(C(=S)Nc4ccc([N+](=O)[O-])cc4)CC3)c(F)c2)C(=O)O1 [Example 45, (S)-N-[3-[3-Fluoro-4-(4-(4-nitrophenyl)thiocarbamidopiperazin-1-yl)phenyl]-2-oxooxazolidin-5-methyl]thioacetamide]
